How the values were obtained:
[1] = system: platelet-activating factor (PAF); experiment: Platelet aggregation assay (PAF-induced aggregation, human platelet-rich plasma); type: cell-based; conditions: PAF-induced aggregation of human platelets, in vitro, read-out: PAF Antagonism (in vitro) IC50
Procedure: Platelet-activating factor (PAF) causes aggregation of platelets by a receptor-mediated mechanism. Therefore, PAF-induced platelet aggregation provides a simple and convenient assay to screen compounds for PAF antagonism. Human blood (50 mL) was collected from healthy male donors in an anticoagulant solution (5 mL) containing sodium citrate (3.8%) and dextrose (2%). Blood was centrifuged at 110×g for 15 min. and the supernatant platelet-rich plasma (PRP) carefully transferred into a polypropylene tube. Platelet-poor-plasma (PPP) was prepared by centrifuging PRP at 12,000×g for 2 min. (Beckman Microfuge B). PRP was used within 3 hr. of drawing the blood. PAF was dissolved in chloroform:methanol (1:1, v/v) at a concentration of 2 mg/mL and stored at -70° C. An aliquot of this solution was transferred to a polypropylene tube and dried under a flow of nitrogen gas. To the dried sample was added Hepes-saline-BSA (BSA=bovine serum albumen) buffer (25 mM Hepes, pH 7.4, […], 0.7 mM MgCl2 and 0.1% BSA) to obtain a 1 mM solution and sonicated for 5 min. in a bath sonicator. This stock solution was further diluted to appropriate concentrations in Hepes-saline-BSA buffer. Collagen (Sigma) and adenosine diphosphate (ADP) (Sigma) were purchased as solutions. Test compounds were initially dissolved in dimethyl sulfoxide (DMSO) at a concentration of 50 mM and then further diluted in Hepes-saline-BSA buffer to achieve appropriate concentrations.
When an aggregating agent such as PAF is added to PRP, platelets aggregate. An aggregometer quantifies this aggregation by measuring and comparing light (infra-red) transmission through PPP and PRP. Aggregation assays were performed using a dual-channel aggregometer (Model 440, Chrono-Log Corp., Havertown, Pa.). PRP (0.45 mL) in aggregometer cuvettes was continually stirred (37° C.). Solutions (50 μL) of test compounds or vehicle were added to the PRP and, after incubation for 2 min., 10-15 μl aliquots of PAF solution were added to achieve a final concentration of 1-5×10^-8 M. In different experiments the aggregatory response was kept within a set limit by varying the concentration of PAF. Incubations were continued until the increase in light transmission reached a maximum (usually 2 min.). This increase in light transmission reflecting platlet aggregation is transmitted to a computer by the Chrono-Log model 810 AGGRO/LINK interface. The AGGRO/LINK calculates the slope of transmission change, thus providing the rate of aggregation. Values for inhibition were calculated by comparing rates of aggregation obtained in the absence and the presence of the compound. For each experiment, a standard PAF antagonist such as 8-chloro-6,11-dihydro-11-(1-acetyl-4-piperidylidene)-5H-benzo[5,6]cyclohepta[1,2-b]pyridine was used as a positive control.
Compounds that inhibit PAF-induced aggregation were tested against several other aggregating agents including collagen (0.2 mg/mL) and ADP (2 μM). Compounds showing no activity against these latter agents were considered to be specific PAF antagonists.

PAF = experiment: PAF-induced bronchospasm in guinea pigs (in vivo, oral); parameters: species or system guinea pig; conditions: for effect on the PAF response, compared with the histamine response: both responses at similar doses, in words; for Agonist Bronchospasm (in vivo)-Oral, PAF, Inhibition: 2 hours after dose, PAF 0.4 μg/kg i.v.
Histamine = experiment: Histamine-induced bronchospasm in guinea pigs (in vivo, oral); parameters: species or system guinea pig; conditions: for effect on the histamine response, compared with the PAF response: both responses at similar doses, in words; for Agonist Bronchospasm (in vivo)-Oral, Histamine, Inhibition: 2 hours after dose, histamine 10 ug/kg i.v.

SMILES	IC50 [1]	effect on the PAF response, compared with the histamine response (PAF)	Agonist Bronchospasm (in vivo)-Oral, PAF, Inhibition (PAF; 5 mg/kg)	effect on the histamine response, compared with the PAF response (Histamine)	Agonist Bronchospasm (in vivo)-Oral, Histamine, Inhibition (Histamine; 3 mg/kg)	Agonist Bronchospasm (in vivo)-Oral, PAF, Inhibition (PAF; 3 mg/kg)	Agonist Bronchospasm (in vivo)-Oral, PAF, Inhibition (PAF; 1 mg/kg)	Agonist Bronchospasm (in vivo)-Oral, Histamine, Inhibition (Histamine; 10 mg/kg)
CC(=O)N1CCC(=C2c3ccc(Cl)cc3CCc3cccnc32)CC1 [Compound 1]	600 nM	there is an effect on both responses at similar doses	49%	there is an effect on both responses at similar doses	49%			
O=C(c1cc[n+]([O-])cc1)N1CCC(=C2c3ccc(Cl)cc3CCc3cccnc32)CC1 [Compound 2]	200 nM	there is an effect on both responses at similar doses		there is an effect on both responses at similar doses	37%	93%		
O=C(c1cc[n+]([O-])cc1)N1CCC(=C2c3ccc(Cl)cc3SCc3cccnc32)CC1 [Compound 3]	40 nM						91%	9%
O=C(c1cc[n+]([O-])cc1)N1CCN(C2c3ccc(Cl)cc3SCc3cccnc32)CC1 (stereo not shown) [Compound 5]	300 nM						38%	9%
O=C(c1cc[n+]([O-])cc1)N1CCN(C2c3ccc(Cl)cc3OCc3cccnc32)CC1 (stereo not shown) [Compound 4]	200 nM				5%		68%	

From patent publication US5430032A, “Benzopyrido piperidylidene compounds, compositions, methods of manufacture and methods of use” (Schering Corporation, priority 1994, dated 1995)
